Experimental data from ChEMBL document CHEMBL1129835, “Selective cytotoxicity of certain 9-substituted ellipticines for leukemia cells in a variety of leukemia cell cultures” (1997).

Key:
[1] = system: NCI-H322M; assay: Concentration for 50% cell kill against non-small cell lung cancer NCI-H322M cell line was determined; assay type: functional; details: Homo sapiens, read-out: LC50 (the source's name)
[2] = system: NCI-H322M; assay: The compound was evaluated for cytotoxicity against NCI-H322M non-small cell lung cancer cell line; assay type: functional; details: Homo sapiens
[3] = system: NCI-H522; assay: Effective dose to show cytotoxicity against non-small cell lung cancer NCI-H522 cell line was determined; assay type: functional; details: Homo sapiens, read-out: ED50 (the source's name)
[4] = system: NCI-H522; assay: Concentration for 50% cell kill against non-small cell lung cancer NCI-H522 cell line was determined; assay type: functional; details: Homo sapiens, read-out: LC50 (the source's name)
[5] = system: NCI-H522; assay: Cytotoxicity exhibited by the compound for total growth inhibition of non-small cell lung cancer NCI-H522 cell line; assay type: functional; details: Homo sapiens
[6] = system: IGROV-1; assay: Concentration for 50% cell kill against ovarian cancer IGROV 1 cell line was determined; assay type: functional; details: Homo sapiens, read-out: LC50 (the source's name)
[7] = system: IGROV-1; assay: Cytotoxicity exhibited by the compound for total growth inhibition of ovarian cancer IGROV 1 cell line; assay type: functional; details: Homo sapiens
[8] = system: OVCAR-3; assay: Effective dose to show cytotoxicity against ovarian cancer OVCAR-3 cell line was determined; assay type: functional; details: Homo sapiens, read-out: ED50 (the source's name)
[9] = system: OVCAR-3; assay: Concentration for 50% cell kill against ovarian cancerOVCAR-3 cell line was determined; assay type: functional; details: Homo sapiens, read-out: LC50 (the source's name)
[10] = system: OVCAR-3; assay: Cytotoxicity exhibited by the compound for total growth inhibition of ovarian cancer OVCAR-3 cell line; assay type: functional; details: Homo sapiens
[11] = system: OVCAR-8; assay: Effective dose to show cytotoxicity against ovarian cancer OVCAR-8 cell line was determined; assay type: functional; details: Homo sapiens, read-out: ED50 (the source's name)
[12] = system: OVCAR-8; assay: Concentration for 50% cell kill against ovarian cancerOVCAR-8 cell line was determined; assay type: functional; details: Homo sapiens, read-out: LC50 (the source's name)
[13] = system: OVCAR-8; assay: Cytotoxicity exhibited by the compound for total growth inhibition of ovarian cancer OVCAR-8 cell line; assay type: functional; details: Homo sapiens
[14] = system: IGROV-1; assay: Effective dose to show cytotoxicity against ovarian cancer IGROV 1 cell line was determined; assay type: functional; details: Homo sapiens, read-out: ED50 (the source's name)
[15] = system: PC-3; assay: The compound was evaluated for cytotoxicity against PC-3 prostate cancer cell line; assay type: functional; details: Homo sapiens
[16] = system: DU-145; assay: Effective dose to show cytotoxicity against prostate cancer DU-145 cell line was determined; assay type: functional; details: Homo sapiens, read-out: ED50 (the source's name)
[17] = system: DU-145; assay: Concentration for 50% cell kill against prostate cancerDU-145 cell line was determined; assay type: functional; details: Homo sapiens, read-out: LC50 (the source's name)
[18] = system: DU-145; assay: Cytotoxicity exhibited by the compound for total growth inhibition of prostate cancer DU-145 cell line; assay type: functional; details: Homo sapiens
[19] = system: PC-3; assay: Effective dose to show cytotoxicity against prostate cancer PC-3 cell line was determined; assay type: functional; details: Homo sapiens, read-out: ED50 (the source's name)
[20] = system: PC-3; assay: Concentration for 50% cell kill against prostate cancerPC-3 cell line was determined; assay type: functional; details: Homo sapiens, read-out: LC50 (the source's name)
[21] = system: PC-3; assay: Cytotoxicity exhibited by the compound for total growth inhibition of prostate cancer PC-3 cell line; assay type: functional; details: Homo sapiens
[22] = system: CAKI-1; assay: Effective dose to show cytotoxicity against renal cancerCAKI-1 cell line was determined; assay type: functional; details: Homo sapiens, read-out: ED50 (the source's name)
[23] = system: CAKI-1; assay: Concentration for 50% cell kill against renal cancerCAKI-1 cell line was determined; assay type: functional; details: Homo sapiens, read-out: LC50 (the source's name)
[24] = system: CAKI-1; assay: Cytotoxicity exhibited by the compound for total growth inhibition of renal cancer CAKI-1 cell line; assay type: functional; details: Homo sapiens
[25] = system: RXF 393; assay: Effective dose to show cytotoxicity against renal cancer RXF 393 cell line was determined; assay type: functional; details: Homo sapiens, read-out: ED50 (the source's name)
[26] = system: RXF 393; assay: Concentration for 50% cell kill against renal cancer RXF 393 cell line was determined; assay type: functional; details: Homo sapiens, read-out: LC50 (the source's name)
[27] = system: RXF 393; assay: Cytotoxicity exhibited by the compound for total growth inhibition of renal cancer RXF 393 cell line; assay type: functional; details: Homo sapiens
[28] = system: SN12C; assay: Effective dose to show cytotoxicity against renal cancer SN12C cell line was determined; assay type: functional; details: Homo sapiens, read-out: ED50 (the source's name)
[29] = system: SN12C; assay: Concentration for 50% cell kill against renal cancer SN12C cell line was determined; assay type: functional; details: Homo sapiens, read-out: LC50 (the source's name)
[30] = system: SN12C; assay: Cytotoxicity exhibited by the compound for total growth inhibition of renal cancer SN12C cell line; assay type: functional; details: Homo sapiens
[31] = system: SNB-19; assay: Cytotoxicity exhibited by the compound for total growth inhibition of CNS cancer SNB-19 cell line; assay type: functional; details: Homo sapiens
[32] = system: SNB-75; assay: Effective dose to show cytotoxicity against CNS cancer SNB-75 cell line was determined; assay type: functional; details: Homo sapiens, read-out: ED50 (the source's name)
[33] = system: SNB-19; assay: Effective dose to show cytotoxicity against CNS cancer SNB-19 cell line was determined; assay type: functional; details: Homo sapiens, read-out: ED50 (the source's name)
[34] = system: SNB-19; assay: Concentration for 50% cell kill against CNS cancer SNB-19 cell line was determined; assay type: functional; details: Homo sapiens, read-out: LC50 (the source's name)
[35] = system: SNB-75; assay: Concentration for 50% cell kill against CNS cancer SNB-75 cell line was determined; assay type: functional; details: Homo sapiens, read-out: LC50 (the source's name)
[36] = system: U-251; assay: Cytotoxicity exhibited by the compound for total growth inhibition of CNS cancer U251 cell line; assay type: functional; details: Homo sapiens
[37] = system: U-251; assay: The compound was evaluated for cytotoxicity against U251 CNS cancer cell line; assay type: functional; details: Homo sapiens
[38] = system: U-251; assay: Effective dose to show cytotoxicity against CNS cancer U251 cell line was determined; assay type: functional; details: Homo sapiens, read-out: ED50 (the source's name)
[39] = system: U-251; assay: Concentration for 50% cell kill against CNS cancer U251 cell line was determined; assay type: functional; details: Homo sapiens, read-out: LC50 (the source's name)
[40] = system: COLO 205; assay: Effective dose to show cytotoxicity against colon cancer COLO 205 cell line was determined; assay type: functional; details: Homo sapiens, read-out: ED50 (the source's name)
[41] = system: NCI-H322M; assay: Effective dose to show cytotoxicity against non-small cell lung cancer NCI-H322M cell line was determined; assay type: functional; details: Homo sapiens, read-out: ED50 (the source's name)
[42] = system: T47D; assay: Concentration for 50% cell kill against breast cancer T-47D cell line was determined; assay type: functional; details: Homo sapiens, read-out: LC50 (the source's name)
[43] = system: SNB-75; assay: Cytotoxicity exhibited by the compound for total growth inhibition of CNS cancer SNB-75 cell line; assay type: functional; details: Homo sapiens
[44] = system: HL-60; assay: Cytotoxicity exhibited by the compound for total growth inhibition of leukemia HL-60 (TB) cell line; assay type: functional; details: Homo sapiens
[45] = system: LOX IMVI; assay: The compound was evaluated for cytotoxicity against LOX-IMVI melanoma cell line; assay type: functional; details: Homo sapiens
[46] = system: MDA-MB-435 (Homo sapiens); assay: Effective dose to show cytotoxicity against breast cancer MDA-MB-435 cell line was determined; details: read-out: ED50 (the source's name)
[47] = system: MDA-MB-435 (Homo sapiens); assay: Cytotoxicity exhibited by the compound for total growth inhibition of breast cancer MDA-MB-435 cell line

Cc1c2ccncc2c(C)c2c1[nH]c1ccc(CO)cc12
CC50 [1]: 35.3 µM | GI50 [2]: 0.62 µM | EC50 [3]: 0.3 µM | CC50 [4]: > 100 µM | TGI [5]: 2.95 µM | CC50 [6]: 62 µM | TGI [7]: 11.7 µM | EC50 [8]: 0.7 µM | CC50 [9]: 46.2 µM | TGI [10]: 52.1 µM | EC50 [11]: 0.42 µM | CC50 [12]: 55.2 µM | TGI [13]: 11.3 µM | EC50 [14]: 0.18 µM | GI50 [15]: 0.45 µM | EC50 [16]: 1.29 µM | CC50 [17]: 35 µM | TGI [18]: 11.9 µM | EC50 [19]: 0.45 µM | CC50 [20]: 23.3 µM | TGI [21]: 3.6 µM | EC50 [22]: 0.37 µM | CC50 [23]: 52.6 µM | TGI [24]: 13.4 µM | EC50 [25]: 1.61 µM | CC50 [26]: 9.43 µM | TGI [27]: 3.89 µM | EC50 [28]: 0.22 µM | CC50 [29]: 1.91 µM | TGI [30]: 3.47 µM | TGI [31]: 11.5 µM | EC50 [32]: 0.49 µM | EC50 [33]: 0.21 µM | CC50 [34]: 56.2 µM | CC50 [35]: 14.9 µM | TGI [36]: > 100 µM | GI50 [37]: 0.28 µM | EC50 [38]: 0.28 µM | CC50 [39]: > 100 µM | EC50 [40]: 0.24 µM | EC50 [41]: 0.62 µM | CC50 [42]: 78.2 µM | TGI [43]: 2.63 µM | TGI [44]: 0.11 µM | GI50 [45]: 0.37 µM | EC50 [46]: 0.24 µM | TGI [47]: 1.61 µM
